Data published in patent US4327224A, “α-[(alkylamino)alkyl]-4-hydroxy-3-(alkylthio)benzenemethanols, derivatives thereof and intermediates therefor” (Sterling Drug Inc., priority 1976, dated 1982).
Counter-ions that a name gives are not always drawn.

Assays:
β-adrenergic [1] = assay: Inhibition of isoproterenol-induced heart rate elevation in the pentobarbitalized dog (β-adrenergic blocking activity); type: in vivo; details: test compound 1.0 mg/kg, isoproterenol intravenous
[2] = tested on: respiratory smooth muscle; assay: Inhibition of histamine-induced bronchoconstriction in the dog (β-adrenergic stimulant activity); type: in vivo; details: 100-200 mcg/kg, over a period of 2 hours
cardiac muscle = assay: Increase in heart rate (β-adrenergic stimulant activity); type: in vivo; details: dog; 100-200 mcg/kg
systolic blood pressure = assay: Reduction in systolic blood pressure in the unanesthetized spontaneous hypertensive rat (antihypertensive activity); type: in vivo; details: single oral medication
Protocol: Antihypertensive activity was determined on the basis of the observed reduction in systolic blood pressure measured according to the method of H. Kersten et al., J. Lab. and Clin. Med. 32, 1090 (1947) following a single oral medication in the unanesthetized spontaneous hypertensive rat described by Okamato et al., Japan Circulation J. 27, 282 (1963).

[3] = tested on: hind limb vasculature of the anesthetized dog; isolated rabbit ear artery; assay: Reduction in perfusion pressure in hind limb vasculature of the anesthetized dog and in the isolated rabbit ear artery (vasodilator activity); type: in vivo
Excerpt: 17, 357 (1972), and also on the basis of percent reduction in perfusion pressure as measured in the isolated rabbit ear artery according to the method described by De La Lande et al. Aust. J. Exp. Biol. Med. Sci. 43, 639 (1965).

β-adrenergic [4] = details: Kaiser et al. 1975; cited from earlier work
β-adrenergic [5] = details: Kaiser et al. 1975; cited from earlier work; remark: listed apart in the source

Row | SMILES | % Inhibition of Heart Rate Elevation (β-adrenergic [1]) | inhibition of the histamine-induced bronchoconstriction [2] | increase in heart rate (β-adrenergic stimulant activity) (cardiac muscle) | antihypertensive activity (reduction in systolic blood pressure) (systolic blood pressure) | vasodilator activity (reduction in perfusion pressure) [3] | β-adrenergic agonist activity (β-adrenergic [4]) | β-adrenergic antagonistic activity (β-adrenergic [5])
1 | CSc1cc(C(O)CNC(C)(C)C)ccc1OC(C)=O (stereo not drawn) [Example 3, α-[(tert-butylamino)methyl]-4-hydroxy-3-(methylthio)benzenemethanol 4-acetate hydrochloride] | 50% | 50% | increase in heart rate | antihypertensive | vasodilator activity |  | 
2 | C[S+]([O-])c1cc(C(O)CNC(C)(C)C)ccc1O (stereo not drawn) [Example 4, α-[(t-butylamino)methyl]-4-hydroxy-3-(methylsulfinyl)benzenemethanolmethanesulfonate] | 100% | 50% | increase in heart rate | antihypertensive | vasodilator activity |  | 
3 | CC(C)(C)NCC(O)c1ccc(O)c(S(C)(=O)=O)c1 (stereo not drawn) [Example 6, α-[(t-butylamino)methyl]-4-hydroxy-3-(methylsulfonyl)benzenemethanolmethanesulfonate] | 87% |  |  |  |  |  | 
4 | CC(C)(C)NCC(O)c1ccc(O)c(S(C)(=O)=O)c1 (stereo not shown) [drawing 3] |  |  |  |  |  | weakly active | exhibits β-adrenergic antagonistic activity
